Measured values published in ChEMBL document CHEMBL4184300, “Design and characterization of bivalent compounds as potential neuroprotectants for Alzheimer's disease: Impact of the spacer on biological activity” (Bioorg Med Chem Lett, 2018).
Active and inactive are the calls of the source. The rule behind the calls is not given here.

Assays:
Homo sapiens [1] = species: Homo sapiens; experiment: Neuroprotective activity against tetracycline removal-induced cytotoxicity in human MC65 cells assessed as reduction in oxidative stress at 0.3 uM after 48 hrs by DCFH-DA dye based fluorescence assay; type: functional, cell-based
[2] = Metal chelating activity assessed as Zn2+-compound complex formation at 50 uM after 10 mins by UV-Vis spectroscopic method
[3] = Metal chelating activity assessed as Cu2+-compound complex formation at 50 uM after 10 mins by UV-Vis spectroscopic method
[4] = Metal chelating activity assessed as Fe2+-compound complex formation at 50 uM after 10 mins by UV-Vis spectroscopic method
[5] = Neuroprotective activity against tetracycline removal-induced cytotoxicity in human MC65 cells assessed as increase in cell viability after 72 hrs by MTT assay; type: functional, cell-based; conditions: MC65, 72 h
N2a = experiment: Neuroprotective activity in mouse N2A cells assessed as induction of neurite outgrowth at 0.3 uM after 48 hrs by fluorescence microscopic analysis; type: functional, cell-based
Homo sapiens [6] = species: Homo sapiens; experiment: Neuroprotective activity against tetracycline removal-induced cytotoxicity in human MC65 cells assessed as reduction in oxidative stress at 32 uM after 48 hrs by DCFH-DA dye based fluorescence assay; type: functional, cell-based
Homo sapiens [7] = species: Homo sapiens; experiment: Neuroprotective activity against tetracycline removal-induced cytotoxicity in human MC65 cells assessed as reduction in oxidative stress at 8 mM after 48 hrs by DCFH-DA dye based fluorescence assay; type: functional, cell-based

COc1cc(/C=C/C(=O)C(Cc2cn(CCCCC(=O)NCCCN3CCN(CCCNC(=O)CCN4CCN(CCCN[C@H]5CC[C@@]6(C)C(=CC[C@H]7[C@@H]8CC[C@H]([C@H](C)CCCC(C)C)[C@@]8(C)CC[C@@H]76)C5)CC4)CC3)nn2)C(=O)/C=C/c2ccc(O)c(OC)c2)ccc1O
Activity (Homo sapiens [1]): Active | Activity [2]: inactive | Activity [3]: inactive | Activity [4]: inactive | EC50 [5]: 64.3 nM

COc1cc(/C=C/C(=O)C(Cc2cn(CCCCC(=O)NCCCN3CCN(CCCNCCN[C@H]4CC[C@@]5(C)C(=CC[C@H]6[C@@H]7CC[C@H]([C@H](C)CCCC(C)C)[C@@]7(C)CC[C@@H]65)C4)CC3)nn2)C(=O)/C=C/c2ccc(O)c(OC)c2)ccc1O
Activity (Homo sapiens [1]): Active | Activity [2]: inactive | Activity [3]: inactive | Activity [4]: inactive | EC50 [5]: 21.5 nM

COc1cc(/C=C/C(=O)C(Cc2cn(CCC(=O)NCCCN3CCN(CCCNC(=O)CCN4CCN(CCCN[C@H]5CC[C@@]6(C)C(=CC[C@H]7[C@@H]8CC[C@H]([C@H](C)CCCC(C)C)[C@@]8(C)CC[C@@H]76)C5)CC4)CC3)nn2)C(=O)/C=C/c2ccc(O)c(OC)c2)ccc1O
Activity (Homo sapiens [1]): Active | Activity [2]: inactive | Activity [3]: inactive | Activity [4]: inactive | EC50 [5]: 33.7 nM

COc1cc(/C=C/C(=O)C(Cc2cn(CCC(=O)NCCCN3CCN(CCCNC(=O)CCC(=O)NCCCN4CCN(CCCNCCN[C@H]5CC[C@@]6(C)C(=CC[C@H]7[C@@H]8CC[C@H]([C@H](C)CCCC(C)C)[C@@]8(C)CC[C@@H]76)C5)CC4)CC3)nn2)C(=O)/C=C/c2ccc(O)c(OC)c2)ccc1O
Activity (Homo sapiens [1]): Active | Activity [2]: inactive | Activity [3]: inactive | Activity [4]: inactive | EC50 [5]: 33.9 nM

COc1cc(/C=C/C(=O)C(Cc2cn(CCCCNC(=O)CCC(=O)NCCCN3CCN(CCCNC(=O)CCN4CCN(CCCN[C@H]5CC[C@@]6(C)C(=CC[C@H]7[C@@H]8CC[C@H]([C@H](C)CCCC(C)C)[C@@]8(C)CC[C@@H]76)C5)CC4)CC3)nn2)C(=O)/C=C/c2ccc(O)c(OC)c2)ccc1O
Activity (Homo sapiens [1]): Active | Activity [2]: inactive | Activity [3]: inactive | Activity [4]: inactive | EC50 [5]: 30.9 nM

COc1cc(/C=C/C(=O)C(Cc2cn(CCCCNC(=O)CCC(=O)NCCCN3CCN(CCCNCCN[C@H]4CC[C@@]5(C)C(=CC[C@H]6[C@@H]7CC[C@H]([C@H](C)CCCC(C)C)[C@@]7(C)CC[C@@H]65)C4)CC3)nn2)C(=O)/C=C/c2ccc(O)c(OC)c2)ccc1O
Activity (Homo sapiens [1]): Active | Activity [2]: inactive | Activity [3]: inactive | Activity [4]: inactive | EC50 [5]: 40.6 nM

COc1cc(/C=C/C(=O)C(Cc2cn(CCC(=O)NCCCN3CCN(CCCNCCN[C@H]4CC[C@@]5(C)C(=CC[C@H]6[C@@H]7CC[C@H]([C@H](C)CCCC(C)C)[C@@]7(C)CC[C@@H]65)C4)CC3)nn2)C(=O)/C=C/c2ccc(O)c(OC)c2)ccc1O
Activity (Homo sapiens [1]): Active | Activity [2]: inactive | Activity [3]: inactive | Activity [4]: inactive | Activity (N2a): inactive | EC50 [5]: 23.9 nM

Cc1c(C)c2c(c(C)c1O)CCC(C)(C(=O)O)O2 (stereo not drawn)
Activity (Homo sapiens [6]): Active

COc1cc(/C=C/C(=O)C(Cc2cn(CCNC(=O)CCC(=O)NCCCN3CCN(CCCNC(=O)CCN4CCN(CCCN[C@H]5CC[C@@]6(C)C(=CC[C@H]7[C@@H]8CC[C@H]([C@H](C)CCCC(C)C)[C@@]8(C)CC[C@@H]76)C5)CC4)CC3)nn2)C(=O)/C=C/c2ccc(O)c(OC)c2)ccc1O
Activity (Homo sapiens [1]): Active | Activity [2]: inactive | Activity [3]: inactive | Activity [4]: inactive | EC50 [5]: 31.6 nM

COc1cc(/C=C/C(=O)C(Cc2cn(CCNC(=O)CCC(=O)NCCCN3CCN(CCCNCCN[C@H]4CC[C@@]5(C)C(=CC[C@H]6[C@@H]7CC[C@H]([C@H](C)CCCC(C)C)[C@@]7(C)CC[C@@H]65)C4)CC3)nn2)C(=O)/C=C/c2ccc(O)c(OC)c2)ccc1O
Activity (Homo sapiens [1]): Active | Activity [2]: inactive | Activity [3]: inactive | Activity [4]: inactive | EC50 [5]: 34.2 nM

COc1cc(/C=C/C(=O)C(Cc2cn(CCCCC(=O)NCCCN3CCN(CCCNC(=O)CCC(=O)NCCCN4CCN(CCCNCCN[C@H]5CC[C@@]6(C)C(=CC[C@H]7[C@@H]8CC[C@H]([C@H](C)CCCC(C)C)[C@@]8(C)CC[C@@H]76)C5)CC4)CC3)nn2)C(=O)/C=C/c2ccc(O)c(OC)c2)ccc1O
Activity (Homo sapiens [1]): Active | Activity [2]: inactive | Activity [3]: inactive | Activity [4]: inactive | EC50 [5]: 94 nM

CC(=O)N[C@@H](CS)C(=O)O
Activity (Homo sapiens [7]): inactive
